Values of other authors in patent US20080286208A1, “Eye treatment” (priority 2001, published 2008).
“Also recorded” adds a separate entry of the source. Like-named read-outs stand apart in the source and are kept apart here.

Test system: eye
Conditions: for Stinging when applied to the eye: applied to the eye in suitable dosage

## CN(C)c1ccc(C(=C2C=CC(=[N+](C)C)C=C2)c2c(O)c(S(=O)(=O)[O-])cc3cc(S(=O)(=O)[O-])ccc23)cc1.[Na+] [Lissamine green]
  Stinging when applied to the eye: without the disadvantages of toxicity and sting potential; also recorded: does not induce stinging; also recorded: does not significantly sting

## O=C([O-])c1c(Cl)c(Cl)c(Cl)c(Cl)c1-c1c2cc(I)c(=O)c(I)c-2oc2c(I)c([O-])c(I)cc12.[Na+].[Na+] [rose bengal]
  Stinging when applied to the eye: may result in stinging and pain to an extent that can be disabling for hours post instillation; also recorded: may produce dose related stinging; also recorded: has been found to sting
Listed as Rose bengal
  Stinging when applied to the eye: has a sting potential
Post instillation
  Toxicity to the eye: known to be toxic
